Source: ChEMBL document CHEMBL4354883, “Design, Synthesis, and Biological Evaluation of HSP90 Inhibitor-SN38 Conjugates for Targeted Drug Accumulation” (J Med Chem, 2020)
Activity calls are given as the source filed them. No cut-off for these calls is given here.

Tests used:
[1] = Half life of compound in PBS buffer at pH 6.0 at 50 uM by HPLC analysis; assay type: physicochemical
[2] = Half life of compound in PBS buffer at pH 7.4 at 50 uM by HPLC analysis; assay type: physicochemical
[3] = Half life in mouse plasma at 25 uM by HPLC analysis; assay type: ADME, cell-free
[4] = Half life in human plasma at 25 uM by HPLC analysis; assay type: ADME, cell-free
[5] = target: Heat shock protein HSP 90-alpha (Homo sapiens, UniProt P07900); assay: biochemical
Description: Inhibition of recombinant human full length HSP90 alpha expressed in Escherichia coli cells after 1 hr by fluorescence polarization assay

[6] = Drug uptake in human A549 cells assessed as blue shift in absorption spectrum at 5 uM by UV-visible absorption spectral analysis; assay type: ADME, cell-based; details: a549, 5 µM
[7] = Drug uptake in human A549 cells assessed as maximum emission peaks at 430 nm at 5 uM by fluorescence emission spectral analysis; assay type: ADME, cell-based; details: a549, 5 µM
[8] = Drug uptake in human A549 cells assessed as blue fluorescence at 5 uM after 12 hrs by confocal laser scanning microscopic analysis; assay type: ADME, cell-based; details: a549, 12 h
[9] = Drug uptake in human A549 cells assessed as endocytosis-mediated total cellular drug internalization at 5 uM after 12 hrs by LC-MS/MS analysis relative to irinotecan; assay type: ADME, cell-based; details: a549, 12 h
[10] = Drug uptake in human A549 cells assessed as endocytosis-mediated total cellular drug internalization at 5 uM after 12 hrs by LC-MS/MS analysis relative to SN38; assay type: ADME, cell-based; details: a549, 12 h
A549 [11] = assay: Antiproliferative activity against human A549 cells assessed as reduction in cell viability after 72 hrs by SRB assay; assay type: functional, cell-based; details: A549, 72 h
HCT-116 [12] = assay: Antiproliferative activity against human HCT116 cells assessed as reduction in cell viability after 72 hrs by SRB assay; assay type: functional, cell-based; details: HCT-116, 72 h
MIA PaCa-2 = assay: Antiproliferative activity against human MIAPaCa2 cells assessed as reduction in cell viability after 72 hrs by SRB assay; assay type: functional, cell-based; details: MIA PaCa-2, 72 h
CAPAN-1 [13] = assay: Antiproliferative activity against human Capan1 cells assessed as reduction in cell viability after 72 hrs by SRB assay; assay type: functional, cell-based; details: CAPAN-1, 72 h
L02 = assay: Cytotoxicity agains human HL7702 cells assessed as reduction in cell viability after 72 hrs by SRB assay; assay type: cell-based; details: L02, 72 h
A549 [14] = assay: Induction of cell cycle arrest in human A549 cells assessed as accumulation at G2/M phase after 24 hrs by RNase A/PI-staining based flow cytometric analysis; assay type: functional
HCT-116 [15] = assay: Induction of cell cycle arrest in human HCT116 cells assessed as accumulation at G2/M phase after 24 hrs by RNase A/PI-staining based flow cytometric analysis; assay type: functional
CAPAN-1 [16] = assay: Induction of cell cycle arrest in human Capan1 cells assessed as accumulation at G2/M phase after 24 hrs by RNase A/PI-staining based flow cytometric analysis; assay type: functional
[17] = target: T1, DNA topoisomerase 1 (Homo sapiens) (UniProt P11387); assay: Inhibition of topoisomerase 1 in human A549 cells assessed as increase in phosphorylated KAP1 expression after 24 hrs by Western blot analysis; assay type: cell-based
T1 sequence (whole entry): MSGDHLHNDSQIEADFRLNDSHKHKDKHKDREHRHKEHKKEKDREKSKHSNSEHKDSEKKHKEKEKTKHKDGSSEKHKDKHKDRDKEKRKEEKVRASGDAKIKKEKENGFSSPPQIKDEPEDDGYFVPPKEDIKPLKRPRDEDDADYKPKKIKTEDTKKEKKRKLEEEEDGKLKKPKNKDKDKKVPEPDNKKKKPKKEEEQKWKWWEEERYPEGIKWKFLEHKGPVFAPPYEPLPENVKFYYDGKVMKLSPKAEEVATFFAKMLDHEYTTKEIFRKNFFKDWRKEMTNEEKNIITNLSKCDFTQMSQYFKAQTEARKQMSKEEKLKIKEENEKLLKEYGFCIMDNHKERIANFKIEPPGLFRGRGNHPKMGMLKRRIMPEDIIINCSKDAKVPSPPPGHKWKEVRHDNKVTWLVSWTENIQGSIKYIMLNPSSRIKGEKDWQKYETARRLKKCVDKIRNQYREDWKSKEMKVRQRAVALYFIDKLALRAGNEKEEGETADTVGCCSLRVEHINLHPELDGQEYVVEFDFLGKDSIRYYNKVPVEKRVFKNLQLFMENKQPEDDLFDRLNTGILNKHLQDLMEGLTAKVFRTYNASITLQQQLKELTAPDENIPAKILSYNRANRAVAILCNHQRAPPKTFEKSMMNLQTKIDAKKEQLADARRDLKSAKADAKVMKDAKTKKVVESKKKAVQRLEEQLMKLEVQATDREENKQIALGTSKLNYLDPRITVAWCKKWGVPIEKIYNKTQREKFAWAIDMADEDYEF

[18] = target: T1, DNA topoisomerase 1 (Homo sapiens); assay: Inhibition of topoisomerase 1 in human HCT116 cells assessed as increase in phosphorylated KAP1 expression after 24 hrs by Western blot analysis; assay type: cell-based
A549 [19] = assay: Downregulation of TOP1 expression in human A549 cells after 24 hrs by Western blot analysis; assay type: functional, cell-based
HCT-116 [20] = assay: Downregulation of TOP1 expression in human HCT116 cells after 24 hrs by Western blot analysis; assay type: functional, cell-based
Heat shock protein HSP90 [21] = target: T2, Heat shock protein HSP90 (Homo sapiens, UniProt P07900+P08238); assay: Inhibition of HSP90 in human A549 cells assessed as upregulation of HSP70 expression at 0.04 to 5 uM after 24 hrs by Western blot analysis; assay type: cell-based
Heat shock protein HSP90 [22] = target: T2, Heat shock protein HSP90; assay: Inhibition of HSP90 in human HCT116 cells assessed as upregulation of HSP70 expression at 0.04 to 5 uM after 24 hrs by Western blot analysis; assay type: cell-based
Heat shock protein HSP90 [23] = target: T2, Heat shock protein HSP90; assay: Inhibition of HSP90 in human A549 cells assessed as downregulation of AKT protein expression after 24 hrs by Western blot analysis; assay type: cell-based
Heat shock protein HSP90 [24] = target: T2, Heat shock protein HSP90; assay: Inhibition of HSP90 in human HCT116 cells assessed as downregulation of AKT protein expression after 24 hrs by Western blot analysis; assay type: cell-based
[25] = Metabolic stability in human liver microsomes assessed as compound remaining at 1 uM preincubated for 5 mins followed by NADPH addition and measured after 60 mins by LC-MS/MS analysis; assay type: ADME, Microsome; details: read-out: Stability
[26] = Half life in human liver microsomes at 1 uM preincubated for 5 mins followed by NADPH addition and measured up to 360 mins by LC-MS/MS analysis; assay type: ADME, Microsome
[27] = Intrinsic clearance in human liver microsomes at 1 uM preincubated for 5 mins followed by NADPH addition and measured up to 360 mins by LC-MS/MS analysis; assay type: ADME, Microsome; details: 6 h
[28] = Half life in BALB/c mouse at 50 mg/kg, iv after 5 to 24 hrs by LC-MS/MS analysis; assay type: ADME, organism-based; details: in vivo
[29] = AUC(0 to infinity) in BALB/c mouse at 50 mg/kg, iv after 5 to 24 hrs by LC-MS/MS analysis; assay type: ADME, organism-based; parameters: dose 50 mg/kg, route intravenous, time infinity; details: in vivo
[30] = Apparent volume of distribution at steady state in BALB/c mouse at 50 mg/kg, iv after 5 to 24 hrs by LC-MS/MS analysis; assay type: ADME, organism-based; details: in vivo, read-out: Vdss(app)
[31] = Clearance in BALB/c mouse at 50 mg/kg, iv after 5 to 24 hrs by LC-MS/MS analysis; assay type: ADME, organism-based; details: in vivo
[32] = Toxicity in mouse xenografted with human HCT116 cells assessed as body weight loss at 50 mg/kg, iv for 5 consecutive days per week and measured every 3 to 4 days up to 14 days relative to control; assay type: organism-based; details: in vivo
[33] = Drug uptake in human A549 cells assessed as eHSP90-mediated total cellular drug internalization at 5 uM after 12 hrs by LC-MS/MS analysis; assay type: ADME, cell-based; details: a549, 12 h
A549 [34] = assay: Ratio of prodrug release in human A549 cells assessed as increase in 7-ethyl-10-hydroxycamptothecin level at 5 uM after 12 hrs by LC-MS/MS analysis to prodrug release in human A549 cells assessed as increase in 7-ethyl-10-hydroxycamptothecin level at 5 uM after 1 hr by LC-MS/MS analysis; assay type: ADME, cell-based; details: a549, 5 µM
Heat shock protein HSP90 [35] = target: T2, Heat shock protein HSP90; assay: Drug uptake in human A549 cells assessed as eHSP90-mediated drug internalization by measuring blue fluorescence in PBS solution at 5 uM after 1 to 12 hrs by confocal laser scanning microscopic analysis; assay type: ADME, cell-based; details: a549, 5 µM, TDE = time-dependent effect

Structure (SMILES): CCc1c2c(nc3ccc(O)cc13)-c1cc3c(c(=O)n1C2)COC(=O)[C@@]3(CC)OC(=O)CCNC(=O)CNc1cc(-n2nc(C(F)(F)F)c3c2CC(C)(C)CC3=O)ccc1C(N)=O
- half-life at 50 µM [1]: > 24 h
- half-life at 50 µM [2]: 12 h
- half-life at 25 µM [3]: 17 h
- half-life at 25 µM [4]: > 24 h
- IC50 [5]: 1700 nM

Structure (SMILES): CCc1c2c(nc3ccc(O)cc13)-c1cc3c(c(=O)n1C2)COC(=O)[C@@]3(CC)OC(=O)CNC(=O)CNc1cc(-n2nc(C(F)(F)F)c3c2CC(C)(C)CC3=O)ccc1C(N)=O
- half-life at 50 µM [1]: > 24 h
- half-life at 50 µM [2]: 7 h
- half-life at 25 µM [3]: 10 h
- half-life at 25 µM [4]: 13 h
- IC50 [5]: 1510 nM

Structure (SMILES): CC1(C)CC(=O)c2c(C(F)(F)F)nn(-c3ccc(C(N)=O)c(N[C@H]4CC[C@H](OC(=O)CN)CC4)c3)c2C1 [SNX 5422]
- IC50 [5]: 38 nM

Structure (SMILES): CCc1c2c(nc3ccc(O)cc13)-c1cc3c(c(=O)n1C2)COC(=O)[C@@]3(CC)OC(=O)CCNC(=O)c1noc(-c2cc(C(C)C)c(O)cc2O)c1-c1ccc(CN2CCOCC2)cc1
- half-life at 50 µM [1]: > 24 h
- half-life at 50 µM [2]: 14 h
- half-life at 25 µM [3]: 17 h
- half-life at 25 µM [4]: > 24 h
- Drug uptake [6]: Active
- Drug uptake [7]: Active
- Drug uptake [8]: Active
- fold change (FC) [9]: 2.8 to 3.8
- fold change (FC) [10]: 1.6 to 1.9
- IC50 (A549 [11]): 324 nM
- IC50 (HCT-116 [12]): 83 nM
- IC50 (MIA PaCa-2): 205 nM
- IC50 (CAPAN-1 [13]): 206 nM
- IC50 (L02): 7890 nM
- Activity (A549 [14]): Dose-dependent effect
- Activity (HCT-116 [15]): Dose-dependent effect
- Activity (CAPAN-1 [16]): Dose-dependent effect
- inhibition [17]: Dose-dependent effect
- inhibition [18]: Dose-dependent effect
- TOP1 downregulation (A549 [19]): Dose-dependent effect
- inhibition (HCT-116 [20]): Dose-dependent effect
- inhibition (Heat shock protein HSP90 [21]): Active
- inhibition (Heat shock protein HSP90 [22]): Active
- inhibition (Heat shock protein HSP90 [23]): Dose-dependent effect
- inhibition (Heat shock protein HSP90 [24]): Dose-dependent effect
- remaining at 1 h, 1 µM [25]: 75%
- half-life at 1 µM [26]: 2.4 h
- CLH [27]: 5.3 mL/min/kg
- half-life [28]: 1.51 h
- AUC(0-inf) [29]: 151 µg·h/mL
- Vd [30]: 0.1 L/kg
- clearance [31]: 5.51 mL/min/kg
- Activity [32]: < 20%
- Drug uptake [33]: Active
- Ratio (A549 [34]): 4.3
- Drug uptake (Heat shock protein HSP90 [35]): Tde
- IC50 [5]: 70 nM
